Data set [1] relates to mice with CLP-induced sepsis. As to conditions: pre-treatment, cited from earlier work.
The subject of data set [2] is patients with septic shock and elevated adrenomedullin. Kind of data set: AdrenOSS-2 phase II clinical trial, mortality versus placebo. It is filed as in vivo, human. The settings on record: for all-cause mortality compared to the placebo arm: 28 days. From the text:
AdrenOSS-2 is a double-blind, placebo-controlled, randomized, multicenter, proof of concept and dose-finding phase II clinical trial to investigate the safety, tolerability and efficacy of the N-terminal ADM antibody named Adrecizumab in patients with septic shock and elevated adrenomedullin (Geven et al. BMJ Open 2019; 9:e024475). In total, 301 patients with septic shock and bio-ADM concentration >70 pg/mL were randomized (2:1:1) to treatment with a single intravenous infusion over approximately 1 hour with either placebo (n=152), adrecizumab 2 ng/kg (n=72) or adrecizumab 4 ng/kg (n=77). All-cause mortality within 28 (90) days after inclusion was 25.8% (34.8%). Mean age was 68.4 years and 61% were male. For the per protocol analysis, n=294 patients remained eligible, and 14-day all-cause mortality rate was 18.5%.
To validate the findings from example 10 and for proof of concept, the different lower thresholds for DPP3 at baseline (day 1) were assessed for efficacy of the anti-ADM antibody (Adrecizumab) therapy in the septic shock population with high bio-ADM from the AdrenOSS-2 study cohort and patients with a DPP3 plasma value above the different lower thresholds were excluded from the analyses. Efficacy of the anti-bio-ADM antibody therapy was specifically assessed to what concerns the mortality endpoint in the placebo and treated arms.
The DPP3 plasma levels in septic shock with high bio-ADM (above […]) patients (n=298) at baseline and in the following 144 h were statistically analysed with the aim of determining a DPP3 threshold at baseline to assess anti-ADM antibody therapy efficacy. Patients above the respective DPP3 plasma thresholds were excluded from the analyses. Different DPP3 plasma concentration thresholds have been applied for 28-day all-cause mortality evaluation using Kaplan-Meier plots comparing anti-ADM antibody therapy vs. placebo. The log-rank test was chosen for showing differences in mortality rates among treatment groups. Hazard ratios (HR) were calculated for each DPP3 plasma concentration threshold to estimate the reduction in mortality risk imposed by anti-ADM antibody therapy relative to placebo.
The different thresholds for DPP3 levels at baseline (day 1) were further used for subgroup analyses for 28-day all-cause mortality evaluation using Kaplan-Meier plots in the treated and placebo arms comparing anti-ADM antibody therapy (Adrecizumab) vs. placebo. The DPP3 plasma concentration thresholds at baseline used were 50 ng/ml and 30 ng/ml.

For the next data set, the system named is endotoxemic rats. As to conditions: pre-treatment; cited from earlier work.
In data set [3] the test system is patients with septic shock and elevated adrenomedullin. Kind of data set: AdrenOSS-2 phase II clinical trial, mortality versus placebo. It counts as in vivo, human.
The subject of data set [4] is subjects of phase I study. The settings on record: cited from earlier work.

Read-outs that look alike come from different tables or passages of the source.

Consider “Adrecizumab: humanized N-terminal anti-ADM antibody; heavy chain SEQ ID NO: 32, light chain SEQ ID NO: 33”, for which the renal vascular leakage result (in data set [1] (mice with CLP-induced sepsis); in the data set on endotoxemic rats) was “attenuated” each time. The 7-day survival was 40% in data set [1] (repeated dose administration (control 0%)) and 50% in data set [1] (single dose administration (control 10%)). The “all-cause mortality compared to the placebo arm” value in data set [2] (DPP3 below 30 ng/ml (n=195)) is listed as “significantly reduced”; in data set [2] (DPP3 below 50 ng/ml) it was “lower than the placebo arm”; in data set [2] (DPP3 below 50 ng/ml at baseline and continuously low during the next 144h), “significantly lower”. Moreover, the “HR, 28-day all-cause mortality relative to placebo” value was 0.258 in data set [2] (DPP3 threshold at baseline 22 ng/ml), 0.309 in data set [2] (DPP3 threshold at baseline 30 ng/ml), 0.568 in data set [2] (DPP3 threshold at baseline 40 ng/ml) and 0.606 in data set [2] (DPP3 threshold at baseline 50 ng/ml). In addition, the “HR for 14-day mortality” value turned out to be 1.69 in data set [3] (elevated DPP3 above 50 ng/mL); 0.385 in data set [3] (pre-dose DPP3 <40); 0.426 in data set [3] (pre-dose DPP3 <50 (ng/mL)); 0.449 in data set [3] (pre-dose DPP3 <60); 0.546 in data set [3] (pre-dose DPP3 <70); 0.606 in data set [3] (pre-dose DPP3 <90). Besides, the serious adverse events result in data set [4] is on record as “no serious adverse events were observed”.
